# Several values for one entry are separate records, joined by “and”; a condition that tells them apart may be missing. Equal entries are not always repeated. Activity calls are given as the source filed them.
# How the values were obtained:
# [1] = target: Cytochrome P450 2C9 (Homo sapiens, UniProt P11712)
# [2] = target: Cytochrome P450 3A4 (Homo sapiens, UniProt P08684);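 note: CYP3A4 tested as one member of a cytochrome P450 panel screen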
# [3] = tested on: H4; assay: Luminescence Cell-Based Dose Response HTS to Identify Activators of 5'UTR Stem-Loop Driven Prion Protein mRNA Translation in H4 Neuroglioblastoma Cells. [Related pubchem assays: 1829 (Project Summary), 1814 (Primary HTS)]; assay type: functional; details: Homo sapiens
# [4] = Luminescence Cell-Based Dose Response HTS to Identify Activators of Luciferase Translation or Activity in H4 […] Cells. [Related pubchem assays: 1829 (Project Summary), 1814 (Primary HTS)]; assay type: functional
# [5] = target: Cytochrome P450 2C19 (Homo sapiens, UniProt P33261); assay: Cytochrome panel assay with activity outcomes. Panel member name: p450-cyp2c19 Compounds with AC50 equal or less than 10 uM are considered active; assay type: functional; details: read-out: AC50
# [6] = target: T1, Ubiquitin-conjugating enzyme E2 N (Homo sapiens, UniProt P61088); assay type: functional;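 note: Dose-response confirmation in a TR-FRET assay detecting UBC13-driven polyubiquitin chain formation, inhibition measured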
# T1 sequence (P61088 whole entry): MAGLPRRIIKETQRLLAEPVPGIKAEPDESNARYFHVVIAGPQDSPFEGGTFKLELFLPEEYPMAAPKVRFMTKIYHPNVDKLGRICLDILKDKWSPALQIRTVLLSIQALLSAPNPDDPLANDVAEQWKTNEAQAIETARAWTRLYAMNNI
# [7] = tested on: INS1; assay: beta cell apoptosis inhibitors, cytokine rescue, dose response, luminescence, retest (AID 449756); assay type: functional, cell-based; details: Rattus norvegicus;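 note: cell death triggered by IL-1 beta plus TNF-alpha plus IFN-gamma mixture; protective hits raise ATP signal compared with cytokine alone wells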
# [8] = target: Paired box protein Pax-8 (Homo sapiens, UniProt Q06710); assay: inhibitors of PAX8-driven TPO luciferase reporter, dose response, RMG-I cells, cherry-pick (AID 687027); assay type: functional, cell-based;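 note: luciferase reporter driven by Pax8 target thyroperoxidase promoter measured by SteadyGlo luminescence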
# [9] = tested on: Streptococcus sp. 'group A'; assay: growth inhibition of control SK(-) GAS strain, dose response, counter-screen for streptokinase expression inhibitor project, luminescence, kanamycin, BacTiterGlo, confirmation (AID 1900); assay type: functional, organism-based
# [10] = tested on: Streptococcus; assay: Group A Streptococcus viability loss, dose response, counter-screen for streptokinase expression inhibitor project, luminescence, BacTiterGlo (AID 1915); assay type: functional, organism-based;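 note: potency for reduction of bacterial viability or growth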
# [11] = Shn3 3'UTR reporter inhibitors, dose response, cell-based, Clone20 osteoblasts, firefly luciferase, cherry-picked (AID 624132); assay type: functional;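 note: firefly luciferase luminescence from reporter carrying the Shn3 3'UTR in osteoblasts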
# [12] = NIH-3T3 fibroblast cytotoxicity, dose response, cytotoxicity control, cell-based, fluorescence, Alamar Blue, secondary assay (AID 2327); assay type: functional;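 note: NIH-3T3 mouse fibroblasts cultured with fluconazole at 8 µg/mL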
# [13] = C. albicans growth with fluconazole, confirmation, fluorescence, retest (AID 2467); assay type: functional, cell-based
# [14] = target: T2, Cytochrome P450 1A2 (Homo sapiens, UniProt P05177);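 note: PubChem cytochrome P450 panel assay, CYP1A2 panel member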
# T2 sequence (P05177 whole entry): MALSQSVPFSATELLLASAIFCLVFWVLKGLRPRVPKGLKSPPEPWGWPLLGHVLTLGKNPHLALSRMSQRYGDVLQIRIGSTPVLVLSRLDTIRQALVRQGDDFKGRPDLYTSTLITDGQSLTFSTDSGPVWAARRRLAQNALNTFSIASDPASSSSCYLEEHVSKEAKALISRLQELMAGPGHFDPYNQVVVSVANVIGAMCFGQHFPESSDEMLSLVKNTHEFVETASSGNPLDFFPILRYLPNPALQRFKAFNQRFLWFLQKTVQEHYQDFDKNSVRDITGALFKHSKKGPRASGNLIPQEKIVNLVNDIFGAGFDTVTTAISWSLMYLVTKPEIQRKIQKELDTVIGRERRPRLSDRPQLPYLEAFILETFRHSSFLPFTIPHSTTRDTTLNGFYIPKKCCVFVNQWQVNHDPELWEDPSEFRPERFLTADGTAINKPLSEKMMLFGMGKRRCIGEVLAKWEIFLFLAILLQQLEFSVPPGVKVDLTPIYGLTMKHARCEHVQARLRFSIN
# [15] = tested on: H9c2; assay: cells; assay type: functional, cell-based; details: Rattus norvegicus, H9c2, Myocardium;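 note: confirmatory concentration-response retest of ultra-high-throughput screening hits for modulation of myocardial damage; cell death induced by hydrogen peroxide oxidative stress; compound pretreatment for 60 min then peroxide exposure for 2 h; potency is for protecting the cells against peroxide damage rather than for killing them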
# Cytochrome P450 2C19, sequence (P33261 whole entry): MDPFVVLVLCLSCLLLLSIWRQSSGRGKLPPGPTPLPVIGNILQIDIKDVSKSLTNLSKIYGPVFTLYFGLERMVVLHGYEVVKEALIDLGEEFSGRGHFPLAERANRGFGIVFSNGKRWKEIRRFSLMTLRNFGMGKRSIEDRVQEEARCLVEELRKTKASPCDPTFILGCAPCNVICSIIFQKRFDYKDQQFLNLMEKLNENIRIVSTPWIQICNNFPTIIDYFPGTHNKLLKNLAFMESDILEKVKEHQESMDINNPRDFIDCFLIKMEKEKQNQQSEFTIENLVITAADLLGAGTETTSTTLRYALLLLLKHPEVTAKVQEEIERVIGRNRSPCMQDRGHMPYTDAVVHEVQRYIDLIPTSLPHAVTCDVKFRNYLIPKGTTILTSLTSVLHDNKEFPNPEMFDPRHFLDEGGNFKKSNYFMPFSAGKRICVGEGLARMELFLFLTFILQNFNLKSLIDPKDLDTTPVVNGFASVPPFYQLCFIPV
# Cytochrome P450 2C9, sequence (P11712 whole entry): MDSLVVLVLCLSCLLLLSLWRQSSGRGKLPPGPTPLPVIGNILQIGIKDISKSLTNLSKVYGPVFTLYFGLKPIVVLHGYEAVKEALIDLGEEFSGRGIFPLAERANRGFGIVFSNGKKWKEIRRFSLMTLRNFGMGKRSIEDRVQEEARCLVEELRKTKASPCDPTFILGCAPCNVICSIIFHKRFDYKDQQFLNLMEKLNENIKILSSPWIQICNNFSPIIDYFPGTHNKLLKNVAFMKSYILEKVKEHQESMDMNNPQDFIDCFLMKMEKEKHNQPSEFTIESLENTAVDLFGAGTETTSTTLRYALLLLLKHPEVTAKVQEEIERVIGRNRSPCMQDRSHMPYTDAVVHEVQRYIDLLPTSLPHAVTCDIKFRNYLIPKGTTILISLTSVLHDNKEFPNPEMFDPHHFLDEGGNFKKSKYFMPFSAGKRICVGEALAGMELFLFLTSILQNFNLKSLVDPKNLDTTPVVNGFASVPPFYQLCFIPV
# Cytochrome P450 3A4, sequence (P08684 whole entry): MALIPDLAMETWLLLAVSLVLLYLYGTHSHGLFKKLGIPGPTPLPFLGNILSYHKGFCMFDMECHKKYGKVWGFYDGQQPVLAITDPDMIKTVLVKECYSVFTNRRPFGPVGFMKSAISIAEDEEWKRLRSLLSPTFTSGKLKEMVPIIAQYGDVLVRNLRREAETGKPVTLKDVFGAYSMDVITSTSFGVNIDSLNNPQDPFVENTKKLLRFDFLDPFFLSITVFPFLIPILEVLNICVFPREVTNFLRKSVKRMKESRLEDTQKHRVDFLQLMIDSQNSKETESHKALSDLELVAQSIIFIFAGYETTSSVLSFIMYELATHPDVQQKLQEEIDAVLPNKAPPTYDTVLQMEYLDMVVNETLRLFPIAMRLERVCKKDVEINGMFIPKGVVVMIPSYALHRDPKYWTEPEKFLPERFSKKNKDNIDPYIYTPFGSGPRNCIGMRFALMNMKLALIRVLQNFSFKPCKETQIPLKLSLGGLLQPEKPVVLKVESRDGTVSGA
# Paired box protein Pax-8, sequence (Q06710 whole entry): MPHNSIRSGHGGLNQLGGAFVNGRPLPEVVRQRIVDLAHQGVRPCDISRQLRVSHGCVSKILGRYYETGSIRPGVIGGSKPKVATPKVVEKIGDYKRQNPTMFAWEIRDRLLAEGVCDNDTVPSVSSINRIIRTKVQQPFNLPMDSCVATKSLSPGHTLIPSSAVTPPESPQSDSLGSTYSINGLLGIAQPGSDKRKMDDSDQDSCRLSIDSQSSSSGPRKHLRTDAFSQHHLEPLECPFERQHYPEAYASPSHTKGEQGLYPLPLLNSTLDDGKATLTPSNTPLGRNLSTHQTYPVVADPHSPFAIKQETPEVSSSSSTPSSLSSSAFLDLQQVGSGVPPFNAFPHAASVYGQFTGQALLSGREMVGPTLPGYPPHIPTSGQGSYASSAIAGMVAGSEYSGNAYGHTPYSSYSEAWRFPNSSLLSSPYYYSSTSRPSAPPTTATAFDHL
smiles,measurement,setting,value
N#CCCn1cc(/C=N/O)c(-c2ccc(Cl)cc2)n1,AC50,[1],15.8 µM (inconclusive)
COc1ccc(/C=C2\OC(=O)c3c(OC)cccc32)cc1OC,AC50,[2],10 µM (inconclusive)
same,EC50,[3],22.4 µM (active)
same,EC50,[4],7.38 µM (active)
COCCCn1c(=S)[nH]c2ncccc2c1=O,AC50,[5],0.501 µM (inconclusive)
same,AC50,[1],0.00562 µM (inconclusive)
COC(=O)C1=C(C)N(Cc2ccccc2)C(NCCc2ccccn2)=N[C@H]1c1cccc(C(F)(F)F)c1,IC50,[6],> 20 µM (inactive)
OCCSCc1cc(Cl)cc(Cl)c1O,AC50,[1],3.98 µM (inconclusive)
Cc1cc(C(=O)c2ccc3ccccc3c2)c(C)o1,AC50,[7],> 260 µM (inactive)
O=C(Nc1ccc(Cl)c(Cl)c1)N[C@@H]1CC[C@H](CCn2cc(C3CCCCC3)nn2)O[C@H]1CO,AC50,[8],19.7 µM (active)
COc1ccc(Cc2nn3c(O)cc(C(C)C)nc3c2-c2ccccc2)cc1,EC50,[9],1.78 µM (active)
same,EC50,[10],4.68 µM (active)
COc1ccc(NC(=O)CCOc2cc(C)ccc2C)cc1S(=O)(=O)N1CCCCC1,AC50,[11],10.4 µM (active)
CCCn1c(=N)n(CC(=O)c2ccc([N+](=O)[O-])cc2)c2ccccc21,EC50,[12],10.5 µM (active)
same,EC50,[13],> 38 µM (not active)
COc1ccc(C2CC(C(F)(F)F)n3nc(C(=O)N(C)Cc4cn(C)nc4C)c(Cl)c3N2)cc1 (configuration not stated),AC50,[5],17.8 µM (inconclusive)
same,AC50,[1],17.8 µM (inconclusive)
O=C(Nc1nnc(C2CC2)s1)c1ccc(S(=O)(=O)c2ccccc2)cc1,AC50,[5],7.08 µM (inconclusive)
same,AC50,[1],0.794 µM (inconclusive)
O=C(Nc1nccs1)c1cc2c(s1)-c1ccccc1OC2,EC50,[3],> 120 µM (not active)
COc1cc(-c2nnc(NC(=O)c3ccc(S(=O)(=O)N4CCOCC4)cc3)o2)cc(OC)c1OC,EC50,[12],> 160 µM (inactive)
same,EC50,[13],5.71 µM (active)
COc1cccc(N2CCN(C(=O)Nc3ccc4c(c3)NC(=O)CO4)CC2)c1,AC50,[1],12.6 µM (inconclusive)
COc1ccc(-c2nc3cnc(Oc4ccccc4)nc3n(Cc3cccs3)c2=O)cc1,AC50,[1],1.26 µM (inconclusive)
C=CCN1CC[C@@]23c4c5ccc(O)c4O[C@H]2/C(=N\N=C2/CC[C@@]4(O)[C@H]6Cc7ccc(O)c8c7[C@@]4(CCN6CC=C)[C@@H]2O8)CC[C@]3(O)[C@@H]1C5,AC50,[2],31.6 µM (inconclusive) and 25.1 µM (inconclusive)
COC(=O)[C@@H]1[C@@H](O)[C@@]2(O)c3c(OC)cc(OC)cc3O[C@@]2(c2ccc(OC)cc2)[C@H]1c1ccccc1,AC50,[2],10 µM (inconclusive)
O=C(N/N=C/c1ccc[nH]1)c1cc2ccccc2cc1O,EC50,[12],> 160 µM (inactive)
same,EC50,[13],> 38 µM (not active)
COCCNc1ccnc(-c2c(C)noc2C)n1,AC50,[2],31.6 µM (inconclusive)
N#C/C(=C\NC(=S)c1ccncc1)c1nc2ccccc2s1,AC50,[2],2.51 µM (inconclusive)
same,AC50,[1],6.31 µM (inconclusive)
CCN(CC)c1ccc(/C=C/C(=O)c2cccnc2)cc1,EC50,[12],> 150 µM (inactive)
same,EC50,[13],0.065 µM (active)
CC(C)NC(=Nc1ccc(Cl)cc1)c1cccnc1,AC50,[2],22.4 µM (inconclusive)
same,AC50,[5],6.31 µM (inconclusive)
COCCn1c(=O)c(-c2ccc(F)cc2)nc2cnc(OCc3ccccc3)nc21,AC50,[2],12.6 µM (inconclusive)
same,AC50,[5],10 µM (inconclusive)
same,AC50,[1],20 µM (inconclusive)
CN(C)c1nc(N)c(C(=O)NC(=N)N)nc1Cl,AC50,[2],10 µM (inconclusive)
Oc1ccc(Cl)cc1C1=NNC(c2ccc(Cl)cc2)C1 (configuration not stated),EC50,[9],2.78 µM (active)
same,EC50,[10],5.5 µM (active)
CN(C)CC(O)COc1cc2ccccc2cc1C(=O)N1CCCCC1 (configuration not stated),EC50,[12],> 150 µM (inactive)
C/C(CC(=O)NCc1ccco1)=N\NC(=O)Cc1ccc(Cl)cc1,AC50,[14],20 µM (inconclusive)
same,AC50,[2],15.8 µM (inconclusive)
same,AC50,[5],22.4 µM (inconclusive)
same,AC50,[1],25.1 µM (inconclusive)
Cc1ccc(-c2nnc(N(C)C(=O)c3cccnc3)s2)cc1,AC50,[14],10 µM (inconclusive)
same,AC50,[2],17.8 µM (inconclusive)
same,AC50,[5],3.16 µM (inconclusive)
CN1c2ccc(C#Cc3cccnc3)cc2[C@@H]2[C@@H](CCN2C(=O)Cc2cccnc2)[C@@H]1CO,AC50,[8],57.2 µM (active)
COc1ccc(NC(=O)CSc2nc(O)cc(=O)n2-c2ccc(OC)cc2)cc1,EC50,[9],13.9 µM (active)
same,EC50,[10],26 µM (inconclusive)
COc1ccc(/C=N/NC(=O)c2ccc(-c3ccccc3)cc2)cc1O,EC50,[12],> 150 µM (inactive)
same,EC50,[13],0.036 µM (active)
CCC/C=C(\CCC)C(NS(=O)(=O)c1ccc(C(F)(F)F)cc1)c1ccc(-c2ccccc2)cc1 (configuration not stated),AC50,[2],3.98 µM (inconclusive)
Cc1cc(C)cc(-n2nnnc2-c2cn(C)nc2C(F)(F)F)c1,AC50,[2],15.8 µM (inconclusive)
CCCCn1c(SC(C)C(N)=O)nc2cc(C(=O)OC)ccc2c1=O (configuration not stated),AC50,[5],3.55 µM (inconclusive)
same,AC50,[1],8.91 µM (inconclusive)
COc1ccc(S(=O)(=O)N(CC(=O)NCC2CCCO2)c2ccc(F)cc2)cc1OC (configuration not stated),AC50,[5],10 µM (inconclusive)
same,AC50,[1],10 µM (inconclusive)
Cc1ccc(N2C(=O)CSC2c2cccnc2)c(Cl)c1 (configuration not stated),AC50,[7],> 260 µM (inactive)
CCN(CC)S(=O)(=O)c1cccc(C(=O)N/N=C/c2ccccn2)c1,IC50,[15],> 79 µM (inactive)
CCCCc1nc(O)c2c3c(sc2n1)CCC3,IC50,[15],> 79 µM (inactive)
COc1ccc(CN2CN=C(Nc3nc4ccccc4s3)NC2)cc1,AC50,[2],10 µM (inconclusive)
same,AC50,[1],20 µM (inconclusive)
COC(=O)c1cc(OC)c(OC)cc1NC(=O)CSc1ccccc1,AC50,[2],15.8 µM (inconclusive)
same,AC50,[1],20 µM (inconclusive)
O=C(c1ccc(-c2nnc(Nc3ccccc3)c3ccccc23)cc1)N1C[C@H]2C[C@H](C1)c1cccc(=O)n1C2,AC50,[14],14.1 µM (inconclusive)
same,AC50,[1],2 µM (inconclusive)
CC(=O)O[C@H]1CC[C@H]2[C@@H]3CC[C@H]4[C@@H](O)[C@H](O)CC[C@]4(C)[C@H]3CC[C@]12C,AC50,[11],> 70 µM (inactive)
O=C(CN(C(=O)Cn1nnc(-c2cccs2)n1)c1cnc2ccccc2c1)NCC1CCCO1 (configuration not stated),IC50,[15],75.1 µM (inactive)
Cc1nnc(SCC2=C(C(=O)O)N3C(=O)C(NC(=O)Cn4ncc(Cl)c4C)C3SC2)s1 (configuration not stated),EC50,[9],< 0.06 µM (active)
same,EC50,[10],0.117 µM (active)
C[C@@]1(C(NC(=O)Cc2ccccc2)c2ccc(-c3ccccc3)cc2)C[C@H]1C1CCCCC1 (some centres not stated),AC50,[2],15.8 µM (inconclusive)
CS(=O)(=O)N1CCC2(CCCN(C(=O)Nc3cccc(C#N)c3)C2)CC1,AC50,[2],25.1 µM (inconclusive)
CCc1ccc(C(=O)NNc2ccc(F)cc2F)cc1,EC50,[12],> 150 µM (inactive)
same,EC50,[13],> 38 µM (not active)
